# Data as given in publication PMC5053523, “In Vitro Antibacterial Activity of Rhodanine Derivatives against Pathogenic Clinical Isolates” (PLoS ONE, 2016).
# Where two headings read alike, the source gives them in different places.
# What was measured:
# [1] = test system: methicillin-resistant Staphylococcus aureus (MRSA); test: Broth microdilution MIC/MBC, MRSA; format: cell-based
# [2] = test system: Vancomycin Resistant Staphylococcus aureus (VRSA); test: Broth microdilution MIC/MBC, VRSA; format: cell-based; details: for MBC / MIC: VRSA
# [3] = test system: Bacillus Strains; test: Broth microdilution MIC50/MIC90 and MIC range, Bacillus strains panel; format: cell-based, Bacillus spp.; details: 10 Bacillus strains
# From the text: The broth microdilution technique was used, followed by subculturing on agar plates that were rhodanine—free. […] The MICs reported represent the lowest concentration of each compound necessary to inhibit bacterial growth and the MBCs represent the lowest concentration required to reduce the initial bacterial inoculum by ≥ 99.9%.
# [4] = test system: Clostridium difficile; test: MIC against Clostridium difficile, anaerobic broth dilution; format: cell-based; details: Clostridioides difficile
# How it was run: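 Clinical C. difficile isolates grown anaerobically 48 h at 37 °C, suspended to 0.5 McFarland and diluted 1:300 in pre-reduced supplemented Brain Heart Infusion broth. Compounds serially diluted; plates incubated anaerobically at 37 °C for 48 h. MIC = lowest concentration with no visible growth.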
# [5] = test system: Mycobacterium smegmatis; test: Broth microdilution MIC/MBC, Mycobacterium smegmatis; format: cell-based; details: Mycolicibacterium smegmatis, ATCC14468, M. Smegmatis ATCC 14468
# [6] = test system: K. pneumoniae; test: Broth microdilution MIC, K. pneumoniae; format: cell-based
# [7] = test system: Candida albicans; test: MIC against Candida albicans; format: cell-based; details: table prints none, read-out: MIC
# [8] = test system: Acinetobacter baumannii; test: MIC with/without sub-MIC colistin, Acinetobacter baumannii; format: cell-based
# How it was run: (§1)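 Read-out is the MIC, determined with sub-inhibitory colistin or polymixin B nonapeptide co-applied to permeabilize the outer membrane of Gram-negative bacteria.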
# [9] = test system: Escherichia coli O157:H7; test: MIC with/without sub-MIC colistin, Escherichia coli O157:H7; format: cell-based
# How it was run: as §1
# [10] = test system: Pseudomonas aeruginosa; test: MIC with/without sub-MIC colistin, Pseudomonas aeruginosa; format: cell-based
# How it was run: as §1
# [11] = test system: Escherichia coli O157:H7; test: MIC with/without PMBN, Escherichia coli O157:H7; format: cell-based
# How it was run: as §1
# [12] = test system: Salmonella Typhimurium; test: MIC with/without PMBN, Salmonella Typhimurium; format: cell-based
# How it was run: as §1
# [13] = test system: Pseudomonas aeruginosa; test: MIC with/without PMBN, Pseudomonas aeruginosa; format: cell-based
# How it was run: as §1
# [14] = test system: Escherichia coli Δ acrAB; test: MIC against E. coli 1411 and AcrAB efflux pump deficient E. coli SM1411Δ acrAB; format: cell-based
# How it was run: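 Sub-MIC colistin or PMBN added to broth MIC tests of rhodanines and reference antibiotics against Gram-negative strains; AcrAB efflux-deficient E. coli SM1411ΔacrAB also tested.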
smiles,measurement,setting,value
O=C(O)[C@H](Cc1ccccc1)N1C(=O)/C(=C/c2cccc(Cc3ccc(Cl)c(Cl)c3)c2)SC1=S [Rh 3],MIC50,[1]; 11 MRSA strains,8 µM
same,MIC90,[1]; 11 MRSA strains,16 µM
same,MBC,[1]; MRSA NRS 1,8 µM
same,MIC,[1]; MRSA NRS 1,8 µM
same,MBC,[1]; MRSA NRS 19,8 µM
same,MIC,[1]; MRSA NRS 19,8 µM
same,MBC,[1]; MRSA NRS 37,16 µM
same,MIC,[1]; MRSA NRS 37,8 µM
same,MBC,[1]; MRSA NRS 107,32 µM
same,MIC,[1]; MRSA NRS 107,8 µM
same,MBC,[1]; MRSA NRS 119,8 µM
same,MIC,[1]; MRSA NRS 119,8 µM
same,MBC,[1]; MRSA NRS 382,32 µM
same,MIC,[1]; MRSA NRS 382,16 µM
same,MBC,[1]; MRSA NRS 383,8 µM
same,MIC,[1]; MRSA NRS 383,8 µM
same,MBC,[1]; MRSA NRS 384,16 µM
same,MIC,[1]; MRSA NRS 384,16 µM
same,MBC,[1]; MRSA NRS 385,16 µM
same,MIC,[1]; MRSA NRS 385,16 µM
same,MBC,[1]; MRSA NRS 386,32 µM
same,MIC,[1]; MRSA NRS 386,8 µM
same,MBC,[1]; MRSA NRS 387,32 µM
same,MIC,[1]; MRSA NRS 387,16 µM
same,MIC50,"[2]; 15 VRSA strains, read-out: MIC 50",8 µM
same,MIC90,"[2]; 15 VRSA strains, read-out: MIC 90",8 µM
same,MBC,"[2]; VRSA 1, read-out: MBC",32 µM
same,MIC,"[2]; VRSA 1, read-out: MIC",8 µM
same,MBC,"[2]; VRSA 2, read-out: MBC",16 µM
same,MIC,"[2]; VRSA 2, read-out: MIC",8 µM
same,MBC,"[2]; VRSA 3a, read-out: MBC",16 µM
same,MIC,"[2]; VRSA 3a, read-out: MIC",16 µM
same,MBC,"[2]; VRSA 3b, read-out: MBC",8 µM
same,MIC,"[2]; VRSA 3b, read-out: MIC",8 µM
same,MBC,"[2]; VRSA 4, read-out: MBC",32 µM
same,MIC,"[2]; VRSA 4, read-out: MIC",8 µM
same,MBC,"[2]; VRSA 5, read-out: MBC",64 µM
same,MIC,"[2]; VRSA 5, read-out: MIC",8 µM
same,MBC,"[2]; VRSA 6, read-out: MBC",16 µM
same,MIC,"[2]; VRSA 6, read-out: MIC",8 µM
same,MBC,"[2]; VRSA 7, read-out: MBC",32 µM
same,MIC,"[2]; VRSA 7, read-out: MIC",8 µM
same,MBC,"[2]; VRSA 8, read-out: MBC",16 µM
same,MIC,"[2]; VRSA 8, read-out: MIC",8 µM
same,MBC,"[2]; VRSA 9, read-out: MBC",16 µM
same,MIC,"[2]; VRSA 9, read-out: MIC",8 µM
same,MBC,"[2]; VRSA 10, read-out: MBC",64 µM
same,MIC,"[2]; VRSA 10, read-out: MIC",8 µM
same,MBC,"[2]; VRSA 11a, read-out: MBC",16 µM
same,MIC,"[2]; VRSA 11a, read-out: MIC",8 µM
same,MBC,"[2]; VRSA 11b, read-out: MBC",16 µM
same,MIC,"[2]; VRSA 11b, read-out: MIC",8 µM
same,MBC,"[2]; VRSA 12, read-out: MBC",32 µM
same,MIC,"[2]; VRSA 12, read-out: MIC",8 µM
same,MBC,"[2]; VRSA 13, read-out: MBC",32 µM
same,MIC,"[2]; VRSA 13, read-out: MIC",8 µM
same,MIC50,[3],4 µM
same,MIC90,[3],4 µM
same,MIC,[4]; C. difficile HM-88,2 µM
same,MIC,[4]; C. difficile HM-745,1 µM
same,MIC,[4]; C. difficile HM-746,2 µM
same,MIC,[4]; C. difficile Isolate-1 NR-13427,2 µM
same,MIC,[4]; C. difficile Toxigenic Strain P8 NR-32888,4 µM
same,MBC,[5]; read-out: MBC,8 µM
same,MIC,[5]; read-out: MIC,4 µM
same,MIC,[6]; K. pneumoniae NR-15417,>128 µM
same,MIC,[6]; Klebsiella pneumoniae,> 128 µM
same,MIC,"[7]; ATCC10231, C. albicans ATCC 10231, unit from abstract",> 64 µM
same,MIC,"[7]; C. albicans NR 29434, unit from abstract",> 64 µM
same,MIC,"[7]; C. albicans NR 29435, unit from abstract",> 64 µM
same,MIC,"[7]; C. albicans NR29437, unit from abstract",> 64 µM
same,MIC,"[7]; C. albicans NR29438, unit from abstract",> 64 µM
same,MIC,"[7]; C. albicans NR 29446, unit from abstract",64 µM
same,MIC,"[7]; C. albicans NR 29448, unit from abstract",> 64 µM
same,MIC,"[7]; C. albicans NR 29449, unit from abstract",> 64 µM
same,MIC,"[7]; C. albicans NR 29453, unit from abstract",> 64 µM
same,MIC,"[7]; C. albicans NR 294436, unit from abstract",> 64 µM
same,MIC,"[8]; Acinetobacter baumannii ATCC BAA747, colistin (+) […], read-out: MIC",>64 µM
same,MIC,"[8]; Acinetobacter baumannii ATCC BAA19606, colistin (+) […], read-out: MIC",>64 µM
same,MIC,"[8]; Acinetobacter baumannii, ATCCBAA747",> 128 µM
same,MIC,"[8]; Acinetobacter baumannii, ATCCBAA19606",> 128 µM
same,MIC,"[9]; Escherichia coli O157:H7 ATCC 35150, colistin (+) […], read-out: MIC",>64 µM
same,MIC,"[9]; Escherichia coli O157:H7 ATCC 700728, colistin (+) […], read-out: MIC",>64 µM
same,MIC,"[9]; Escherichia coli, ATCC35150",> 128 µM
same,MIC,"[9]; Escherichia coli, ATCC700728",> 128 µM
same,MIC,"[10]; Pseudomonas aeruginosa ATCC 921, colistin (+) […], read-out: MIC",>64 µM
same,MIC,"[10]; Pseudomonas aeruginosa, ATCC921",> 128 µM
same,MIC,"[11]; Escherichia coli O157:H7 ATCC 35150, PMBN (+) 4 μg/mL, read-out: MIC",8 µM
same,MIC,"[11]; Escherichia coli O157:H7 ATCC 700728, PMBN (+) 4 μg/mL, read-out: MIC",>64 µM
same,MIC,"[11]; Escherichia coli, ATCC35150",> 256 µM
same,MIC,"[11]; Escherichia coli, ATCC700728",> 128 µM
same,MIC,"[12]; Salmonella Typhimurium ATCC 700720, PMBN (+) 4 μg/mL, read-out: MIC",>128 µM
same,MIC,"[12]; Salmonella enterica, ATCC 700720 / TYPHIMURIUM",> 128 µM
same,MIC,"[13]; Pseudomonas aeruginosa ATCC 9721, PMBN (+) 4 μg/mL, read-out: MIC",>64 µM
same,MIC,"[13]; Pseudomonas aeruginosa, ATCC9721",> 128 µM
same,MIC,[14]; E.coli 1411,> 64 µM
same,MIC,"[14]; E.coli 1411 SM (Δ acrAB, AcrAB efflux pump deficient)",> 64 µM
